{"source": "patent US8048986B2", "about": "“Reversed mammalian protein-protein interaction trap” (Vlaams Interuniversitair Instituut Voor Biotechnologie VZW, priority 2001, dated 2011)", "biological_target": "ALK4-FKBP12 interaction (Homo sapiens, UniProt P62942)", "sequence (P62942 2-107)": "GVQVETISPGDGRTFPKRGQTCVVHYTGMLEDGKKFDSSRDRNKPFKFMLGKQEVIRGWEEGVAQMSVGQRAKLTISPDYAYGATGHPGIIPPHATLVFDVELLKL", "sequence (P18031 1-276 partner limits assumed)": "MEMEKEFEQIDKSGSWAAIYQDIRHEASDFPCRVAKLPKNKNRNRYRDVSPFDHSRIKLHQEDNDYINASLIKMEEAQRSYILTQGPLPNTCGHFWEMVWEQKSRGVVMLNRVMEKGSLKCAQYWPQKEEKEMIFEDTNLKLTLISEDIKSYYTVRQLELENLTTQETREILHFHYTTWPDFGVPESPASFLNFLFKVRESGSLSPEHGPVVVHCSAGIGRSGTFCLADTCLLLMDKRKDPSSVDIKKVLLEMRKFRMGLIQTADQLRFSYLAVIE", "assay": "reversed interaction trap: pSELFFY-ALK4 bait with inhibitory prey pMET7-fPPD1-FKBP12, rPAP1-luciferase reporter in HEK293T cells", "type": "cell-based", "conditions": "pSELFFY-ALK4 + pMET7-fPPD1-FKBP12 (1000, 500, 250 ng), FK506 pretreatment, Epo 5 ng/ml after four hours, normalized with irrelevant bait pSELFFY-EpoR, FIG. 6", "description": "HEK293T cells (six-well plate) were transfected with a combination of the following plasmids:\nA representative experiment of triplicate luciferase measurements is shown. The values have been normalized using background luciferase activities (fold induction) and by using an irrelevant bait construct (pSELFFY-EpoR, exp. 4-6) to correct for toxicity of FK506 on the cells.\nTwo days after transfection, cells were seeded in black well plates (approximately 10,000 cells/well) and pretreated with various concentrations of FK506 as indicated. Epo was added after four hours to the treated cells (5 ng/ml). Twenty-four hours after stimulation, luciferase and beta-galactosidase activities were measured.\nThe values have been normalized using background luciferase activities (fold induction) and by using an irrelevant bait construct (pSELFFY-EpoR, exp. 4-6) to correct for toxicity of FK506 on the cells.", "note": "“Also recorded” adds a separate entry of the source."}
{"smiles": "C=CC[C@@H]1/C=C(\\C)C[C@H](C)C[C@H](OC)[C@H]2O[C@@](O)(C(=O)C(=O)N3CCCC[C@H]3C(=O)O[C@H](/C(C)=C/[C@@H]3CC[C@@H](O)[C@H](OC)C3)[C@H](C)[C@@H](O)CC1=O)[C@H](C)C[C@@H]2OC", "note": "[FK506]", "values": [{"measurement": "restoration of signaling via the pSELFFY-ALK4 bait / block of inhibition by the bait-prey interaction (luciferase activity, fold induction)", "value": "blocked, in a dose dependent manner; also recorded: partially restores signaling"}]}
